# Reference: article PMC5220503, “Simultaneous Determination of Bergapten, Imperatorin, Notopterol, and Isoimperatorin in Rat Plasma by High Performance Liquid Chromatography with Fluorescence Detection and Its Application to Pharmacokinetic and Excretion Study after Oral Administration of Notopterygium incisum Extract” (International Journal of Analytical Chemistry, 2016)
# Like-named read-outs stand apart in the source and are kept apart here.
# Legend:
# [1] = Excretion study in rat urine, feces and bile after oral N. incisum extract; format: in vivo, Sprague–Dawley rats; details: 0–72 h, oral 4.2 g kg^−1 N. incisum extract; for cumulative excretion in feces: rat feces; for cumulative excretion in urine: rat urine
# Description: Sixteen male Sprague–Dawley (SD) rats (200 ± 20 g) were divided into two groups (group 1 were for collecting urine and fecal samples in metabolic cages while group 2 were for collecting bile samples from the bile duct using polyethylene tubes). For group 1, the rats were orally given N. incisum extract dissolved in 0.5% CMC-Na at a dosage of 4.2 g kg^−1 and placed in metabolic cages enabling collection of urine and fecal samples separately. The urine and fecal samples were collected at time intervals of 0–4, 4–8, 8–12, 12–24, 24–36, 36–48, 48–60, and 60–72 h. For group 2, the rats were anaesthetized with chloral hydrate at a dose of 0.3 g kg^−1 administered intraperitoneally. A polyethene tube was used in cannulating the bile duct ensuring continuous flow of bile. The rats were then administered the extract at a dose of 4.2 g kg^−1 and the bile samples were then collected at different time intervals (0-1, 1-2, 2-3, 3-4, 4-5, 5-6, 6-7, 7-8, and 8-9 h). After the volumes of urine and bile obtained were measured, these samples were stored at −20°C until analysis. The preparation of the urine and bile samples were the same as the plasma sample preparation described above. On the other hand, the fecal samples after collection were dried out in a drying oven at 40°C. After measuring the weights of the fecal samples, they were crushed by a mortar to achieve a uniform powder; 0.1 g of powdered feces was measured and 1 mL methanol was added in 1.5 mL polythene tubes, mixed sufficiently for 3 min, and extracted ultrasonically for 30 min. They were then centrifuged at 18000 ×g for 10 min. Supernatants were transferred into vials for analysis using HPLC-FLD.
# [2] = Pharmacokinetic study in rats after oral administration of N. incisum extract (HPLC-FLD of plasma); format: in vivo, Sprague–Dawley rats
# Experimental: HPLC analysis was performed on an Agilent 1100 HPLC (Agilent Technologies, USA) equipped with a quaternary pump, a degasser, an autosampler, a column thermostat compartment, and a diode array detector (DAD). An Agilent fluorescence detector was coupled to the Agilent system. Separation was carried out with a Hedera ODS column (4.6 mm × 250 mm, 5 μm) by gradient elution at a temperature of 40°C. Excitation and emission of the fluorescence detector were set to 300 nm and 490 nm, respectively. The analysis involved a constant flow rate of 1.0 mL min^−1 and an injection volume of 30 μL. The mobile phase comprised of (A) aqueous formic acid (0.1%, v/v) and (B) acetonitrile after degassing through ultrasonication using a gradient elution of 15–30% B at 0 to 10 min, 30–42% B at 10 to 20 min, 42% B at 20 to 65 min, 42–80% B at 65–70 min, and 80–90% at 70–75 min. The reequilibration time of gradient elution was 10 min. Owing to the similarity in polarity of imperatorin and notopterol, it was essential to maintain 42% of acetonitrile for 45 min to ensure that the two compounds were well separated.
# To a 100 μL aliquot of plasma sample, 10 μL IS solution was added. Samples were vortex-mixed for 2 min, extracted with 1000 μL ethyl acetate, and then centrifuged for 10 min at 18000 ×g. Supernatant was transferred into another centrifuge tube and evaporated to dryness using nitrogen gas. The dried residue was reconstituted by adding 100 μL methanol. The solution was shaken and ultrasonicated for 2 min. It was then centrifuged at 18000 ×g for 10 min. A 30 μL of the solution was run with the HPLC and analysis was performed.
# The PK study was carried out in accordance with the guidelines for the care and use of laboratory animals and approved by the Animal Ethics Committee of Tianjin University of Traditional Chinese Medicine. Eight male Sprague–Dawley rats weighing 180–220 g were kept at the animal center of Tianjin University of Traditional Chinese Medicine (Tianjin, China) with controlled conditions (temperature at 25 ± 2°C and relative humidity of 55 ± 5%). They were allowed free access to food and water and acclimatized for 7 days until 12 h before the experiment. According to the clinical dose used in human for each day, the rats were administered an oral dose of 4.2 g kg^−1 N. incisum extract suspended in 0.5% carboxymethylcellulose sodium salt aqueous solution (CMC-Na) and an amount of blood sample (200 μL) was collected at time 0, 0.083, 0.167, 0.25, 0.5, 0.75, 1, 1.5, 2, 3, 4, 6, 8, 12, and 24 h into heparin-pretreated tubes from the fossa orbitalis of each rat after oral administration of the extract. Blood plasma was immediately obtained by centrifuging the collected blood at 3300 ×g for 10 min and storing at −20°C until analysis.
# The DAS software (Drug and Statistics 1.0, Medical College of Wannan, China), a computer program, was used in calculating the pharmacokinetic parameters after administering N. incisum extract. Bergapten, imperatorin, and isoimperatorin where analyzed using a one-compartment analysis while notopterol was processed using a two-compartment analysis based on Akaike's information criterion (AIC) estimation.
# [3] = Stability of analytes in rat plasma (QC samples); format: in vitro ADME; details: n = 6; for Stability, Autosampler for 24 h, Mean: extracted rat plasma, autosampler 24 h; for Stability, Freeze-thaw cycles, Mean / Stability, At −80°C for 1 month, Mean: rat plasma; for Stability, Freeze-thaw cycles, Mean: three freeze/thaw cycles
# Experimental: Mixed quality control (QC) samples at high, medium, low, and LLOQ concentrations were made by spiking appropriate mixed standard solutions into blank rat plasma, giving plasma concentration ranges of 600, 60, 12, and 4 ng mL^−1 for bergapten, 6000, 600, 120, and 40 ng mL^−1 for imperatorin, 600, 60, 12, and 4 ng mL^−1 for notopterol, and 300, 30, 6, and 2 ng mL^−1 for isoimperatorin, respectively, followed by the same sample preparation and extraction method described above.
# The recovery was determined by comparing the observed peak area in extracted plasma samples to those of postprocessed spiked samples. […]
# [4] = male, Sprague-Dawley, rat, plasma, po, 4.2 g/kg, rat plasma, oral 4.2 g kg^−1 N. incisum extract, n = 8, mean ± SD, read-out: T 1/2 (converted)
# [5] = male, Sprague-Dawley, rat, plasma, po, 4.2 g/kg, rat plasma, oral 4.2 g kg^−1 N. incisum extract, n = 8, mean ± SD, read-out: T max
# [6] = male, Sprague-Dawley, rat plasma, oral 4.2 g kg^−1 N. incisum extract, n = 8, mean ± SD, read-out: AUC0–∞
# [7] = male, Sprague-Dawley, rat plasma, oral 4.2 g kg^−1 N. incisum extract, n = 8, mean ± SD, read-out: C max
# [8] = male, Sprague-Dawley, rat plasma, oral 4.2 g kg^−1 N. incisum extract, read-out: total drug exposure in rats in over 24 h, AUC0–24
# [9] = rat plasma, oral 4.2 g kg^−1 N. incisum extract, n = 8, mean ± SD
# [10] = high QC (600, 6000, 600, 300 ng mL^−1)
# [11] = low QC (12, 120, 12, 6 ng mL^−1)
# [12] = medium QC (60, 600, 60, 30 ng mL^−1)
# [13] = male, Sprague-Dawley, rat, in vivo, po, 4.2 g/kg
cumulative excretion in feces [1],"half-life [2, 4] [h]","Tmax [2, 5] [h]","AUC(0-inf) [2, 6] [ng·h/mL]","Cmax [2, 7] [ng/mL]","AUC(0-t) [2, 8] [ng·h/mL]","T 1/2 [2, 9] [h]","T max [2, 9] [h]",cumulative excretion in urine [1],Compound,other results
about 80%,12,~3,1960 ± 2490,184 ± 171,1640 ± 2490,12.8 ± 22.2,3.06 ± 3.71,,"COc1c2ccoc2cc2oc(=O)ccc12 [Bergapten, bergapten]","Stability, Autosampler for 24 h, Mean ([3]; LLOQ QC (4, 40, 4, 2 ng mL^−1)): 100%; Stability, Autosampler for 24 h, Mean [3, 10]: 88.9%; Stability, Autosampler for 24 h, Mean [3, 11]: 101%; Stability, Autosampler for 24 h, Mean [3, 12]: 115%; Stability, Freeze-thaw cycles, Mean ([3]; LLOQ QC (4, 40, 4, 2 ng mL^−1)): 106%; Stability, Freeze-thaw cycles, Mean [3, 10]: 85.1%; Stability, Freeze-thaw cycles, Mean [3, 11]: 91.1%; Stability, Freeze-thaw cycles, Mean [3, 12]: 83.6%; Stability, At −80°C for 1 month, Mean ([3]; LLOQ QC (4, 40, 4, 2 ng mL^−1)): 80.5%; Stability, At −80°C for 1 month, Mean [3, 10]: 112%; Stability, At −80°C for 1 month, Mean [3, 11]: 91.1%; Stability, At −80°C for 1 month, Mean [3, 12]: 104%"
7.7284 + 2.2114%,≤ 6,< 2,2120 ± 2870,145 ± 75.9,830 ± 762,5.62 ± 4.06,1.59 ± 0.97,0.0084 + 0.0016%,"CC(C)=CCOc1c2ccoc2cc2oc(=O)ccc12 [Isoimperatorin, isoimperatorin]",
54.1083 + 4.4359%,≤ 6,,296 ± 242,23.3 ± 6.87,102 ± 34.8,3.18 ± 3.44,0.45 ± 0.35,0.1171 + 0.0096%,"CC(C)=CC(O)C/C(C)=C/COc1c2ccoc2cc2oc(=O)ccc12 (stereo not shown) [Notopterol, notopterol]","T max ([2]; rat plasma, oral 4.2 g kg^−1 N. incisum extract, n = 8, mean ± SD, listed as notopterol): below 2 h"

# The next lines start with the compound.
Compound,cumulative excretion in feces [1],"half-life [2, 4] [h]","Tmax [2, 5] [h]","AUC(0-inf) [2, 6] [ng·h/mL]","Cmax [2, 7] [ng/mL]","AUC(0-t) [2, 8] [ng·h/mL]","T 1/2 [2, 9] [h]","T max [2, 9] [h]",cumulative excretion in urine [1],other results
"CC(C)=CCOc1c2occc2cc2ccc(=O)oc12 [Imperatorin, imperatorin]",,,,,,,,,,"AUC(0-inf) [2, 13]: 13900 ± 13900 ng·h/mL; AUC(0-t) [2, 13]: 11000 ± 12000 ng·h/mL; Cmax [2, 13]: 1670 ± 1500 ng/mL; T 1/2 [2, 13]: 4.99 ± 3.02 h; T max [2, 13]: 1.65 ± 1.80 h; half-life ([2]; male, Sprague-Dawley, rat, in vivo, po, 4.2 g/kg, T 1/2): ≤ 6 h; Tmax ([2]; male, Sprague-Dawley, rat, in vivo, po, 4.2 g/kg, T max): < 2 h"
"COc1ccc2ccc(=O)oc2c1CC=C(C)C [osthole, reference compound]",,,,,,,,,,detection in rat plasma ([2]; after oral 4.2 g kg^−1 N. incisum extract): not detected
